Reference: patent US11548860B2, “Pharmacophores, compounds and methods having application in the treatment of cancer through inhibition of CYP17A1 and CYP19A1” (MANGOSUTHU UNIVERSITY OF TECHNOLOGY, priority 2015, dated 2023)

Experiments:
CYP3A4 = CYP3A4 (Homo sapiens (Human), UniProt P08684); test: CYP inhibition against major 5 human liver CYPs in E. coli CYPEX membranes: CYP3A4 (midazolam); type: in vitro ADME; conditions: bactosome mix, 10 min, 37° C.
Protocol: (§1) Test compounds and control inhibitors were prepared as stocks in DMSO from the solid compound. The stocks were diluted in 0.1 M phosphate buffer (pH 7.4) at four times the final concentration prior to addition into the incubation tubes. The final DMSO concentration was 1%. […] Catalogue number CYP/XG001, Batch XG001001). Selective and FDA accepted substrates for each isoform were used at a concentration around the Km for each substrate. Activity of each isoform was assessed by measuring the appearance of an isoform-specific metabolite. A cocktail of 5 isoform-specific inhibitors was used as a positive control. […] Reactions were stopped by addition of 100 μl MeOH/1 μM Tolbutamide (internal standard). The quenched samples were mixed thoroughly and protein precipitated at −20° C. overnight. Samples were centrifuged at 2,500×g (3,400 rpm) for 20 minutes, 4° C. The supernatants were transferred to a 96 well-plate and analysed by LC-MS/MS. […] The LC-MS/MS peak responses (CYP metabolite peak area/internal standard peak area) for each test compound or positive control inhibitor were used and the response for each sample was expressed as a percentage of an uninhibited control (DMSO incubation).

[1] = Toxicity studies on the molecules in Table 2
Solubility in DMSO = type: physicochemical
CYP2C19 = CYP2C19 (Homo sapiens (Human), UniProt P33261); test: CYP inhibition against major 5 human liver CYPs in E. coli CYPEX membranes: CYP2C19 ((S)-mephenytoin); type: in vitro ADME; conditions: bactosome mix, 10 min, 37° C.
Protocol: as §1

CYP2C9 = CYP2C9 (Homo sapiens (Human), UniProt P11712); test: CYP inhibition against major 5 human liver CYPs in E. coli CYPEX membranes: CYP2C9 (diclofenac); type: in vitro ADME; conditions: bactosome mix, 10 min, 37° C.
CYP17A1 = CYP17A1 (Homo sapiens (Human), UniProt P05093); test: CYP17A1 inhibition, CYP17A1 bactosomes, progesterone substrate, LC-MS/MS; type: biochemical; conditions: for IC50: 0.1 μM progesterone, 20 min, 37° C.
Protocol: CYP17A1 inhibition was measured using 20 pmol/ml CYP17A1 bactosomes (Cypex, Dundee, UK) and 0.1 μM progesterone as a substrate and 1 mM NADPH in 50 mM potassium phosphate buffer pH 7.4 containing 5 mM magnesium chloride. Inhibitors were dissolved in DMSO and serially diluted in seven ½ log steps, final concentrations ranging from 50 μA to 50 nM. Reaction volume was 100 μl and final DMSO concentration was 1% (v/v). Reactions were started by the addition of NADPH and incubated at 37° C. for 20 minutes with shaking at 1800 rpm on a Bioshake IQ (Q-Instruments, Jena, Germany). Reactions were terminated by the addition of 200 μl methanol containing 1 μM tolbutamide as an internal standard.

CYP2D6 = CYP2D6 (Homo sapiens (Human), UniProt P10635); test: CYP inhibition against major 5 human liver CYPs in E. coli CYPEX membranes: CYP2D6 (bufuralol); type: in vitro ADME; conditions: bactosome mix, 10 min, 37° C.
Protocol: Test compounds and control inhibitors were prepared as stocks in DMSO from the solid compound. The stocks were diluted in 0.1 M phosphate buffer (pH 7.4) at four times the final concentration prior to addition into the incubation tubes. The final DMSO concentration was 1%. […] Catalogue number CYP/XG001, Batch XG001001). Selective and FDA accepted substrates for each isoform were used at a concentration around the Km for each substrate. Activity of each isoform was assessed by measuring the appearance of an isoform-specific metabolite. A cocktail of 5 isoform-specific inhibitors was used as a positive control. […] Reactions were stopped by addition of 100 μl MeOH/1 μM Tolbutamide (internal standard). The quenched samples were mixed thoroughly and protein precipitated at −20° C. overnight. Samples were centrifuged at 2,500×g (3,400 rpm) for 20 minutes, 4° C. The supernatants were transferred to a 96 well-plate and analysed by LC-MS/MS. The following LC-MS/MS conditions were used to analyse the 5CYP inhibition samples: • Column: Waters ACE Excel C18-AR, 50×2.1 mm, 2 μm • Mobile phase A: MilliQ water+0.1% formic acid • Mobile phase B: Methanol+0.1% formic acid • Flow rate: 0.8 ml/min The CYP activities for each test compound/positive control inhibitor at each concentration were converted to % of control activity (CA). The LC-MS/MS peak responses (CYP metabolite peak area/internal standard peak area) for each test compound or positive control inhibitor were used and the response for each sample was expressed as a percentage of an uninhibited control (DMSO incubation).

CYP1A2 = CYP1A2 (Homo sapiens (Human), UniProt P05177); test: CYP inhibition against major 5 human liver CYPs in E. coli CYPEX membranes: CYP1A2 (tacrine); type: in vitro ADME; conditions: bactosome mix, 10 min, 37° C.
Protocol: as §1

[2] = tested on: CYP1A2, CYP2C9, CYP2C19, CYP2D6, and CYP3A4; test: Summary of inhibition of metabolic CYP450 isoforms (5 CYP panel); type: in vitro ADME, human; conditions: Table 2
CYP19A1 = CYP19A1 (Homo sapiens (Human), UniProt P11511); test: CYP19A1 inhibition, CYP19/MFC High Throughput Inhibitor Screen Kit, fluorescence; type: biochemical
Protocol: Test compounds and control inhibitors were prepared as stocks in either Acetonitrile or DMSO from the solid compound. Compounds were serially diluted in ½ log steps in the same solvent. CYP19A1 inhibition experiments were performed using the CYP19/MFC High Throughput Inhibitor Screen Kit (Corning). Test compounds were tested in seven concentrations: […] CYP19A1 reactions were performed in black 96 well-plates (Greiner) according to the manufacturer's instructions. […] Final organic solvent concentrations were either 4% (v/v) acetonitrile or 0.5% (v/v) Dimethyl sulfoxide. The plates were covered with self-adhesive film lids and incubated for 10 minutes at 37° C. Reactions were terminated by the addition of 75 μl Stop Solution (100 mM Tris base in acetonitrile: MilliQ water (80:20). […] The CYP activities for each test compound/positive control inhibitor at each concentration were converted to % of control activity (CA). The LC-MS/MS peak responses (CYP metabolite peak area/internal standard peak area) for each test compound or positive control inhibitor were used and the response for each sample was expressed as a percentage of an uninhibited control (DMSO incubation).

CYP17A1 and CYP19A1 = test: Classification as Dual Inhibitor (inhibitor of both CYP17A1 and CYP19A1); conditions: inhibitors of both CYP17A1 and CYP19A1

CYP2D6, sequence (P10635 whole entry, canonical isoform): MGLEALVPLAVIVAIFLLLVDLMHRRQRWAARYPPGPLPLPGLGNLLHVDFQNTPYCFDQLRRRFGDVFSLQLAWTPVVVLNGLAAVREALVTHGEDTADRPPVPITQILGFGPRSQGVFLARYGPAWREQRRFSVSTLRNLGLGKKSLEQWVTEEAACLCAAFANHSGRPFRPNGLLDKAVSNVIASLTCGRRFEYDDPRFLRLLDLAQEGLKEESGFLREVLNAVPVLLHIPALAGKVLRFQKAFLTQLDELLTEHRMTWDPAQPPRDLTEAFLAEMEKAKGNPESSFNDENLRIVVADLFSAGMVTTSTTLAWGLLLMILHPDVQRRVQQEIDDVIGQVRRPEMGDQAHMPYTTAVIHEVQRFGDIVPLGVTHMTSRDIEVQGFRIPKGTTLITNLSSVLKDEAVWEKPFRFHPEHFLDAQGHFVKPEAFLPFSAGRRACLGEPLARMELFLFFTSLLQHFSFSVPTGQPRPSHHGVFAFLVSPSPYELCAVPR
CYP17A1, sequence (P05093 whole entry): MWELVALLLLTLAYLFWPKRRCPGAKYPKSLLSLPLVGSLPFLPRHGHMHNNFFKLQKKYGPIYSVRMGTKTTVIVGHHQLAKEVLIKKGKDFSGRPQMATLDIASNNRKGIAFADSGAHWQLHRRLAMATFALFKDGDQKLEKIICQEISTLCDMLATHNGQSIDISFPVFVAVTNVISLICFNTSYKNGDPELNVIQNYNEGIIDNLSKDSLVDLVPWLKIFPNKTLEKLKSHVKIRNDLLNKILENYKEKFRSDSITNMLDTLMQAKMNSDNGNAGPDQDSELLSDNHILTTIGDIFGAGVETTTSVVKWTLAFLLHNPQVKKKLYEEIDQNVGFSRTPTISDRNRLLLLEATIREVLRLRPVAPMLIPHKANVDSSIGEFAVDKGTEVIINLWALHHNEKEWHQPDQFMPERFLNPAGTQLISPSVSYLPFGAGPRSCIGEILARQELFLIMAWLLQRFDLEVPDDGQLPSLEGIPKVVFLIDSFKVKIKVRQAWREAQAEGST
CYP2C9, sequence (P11712 whole entry): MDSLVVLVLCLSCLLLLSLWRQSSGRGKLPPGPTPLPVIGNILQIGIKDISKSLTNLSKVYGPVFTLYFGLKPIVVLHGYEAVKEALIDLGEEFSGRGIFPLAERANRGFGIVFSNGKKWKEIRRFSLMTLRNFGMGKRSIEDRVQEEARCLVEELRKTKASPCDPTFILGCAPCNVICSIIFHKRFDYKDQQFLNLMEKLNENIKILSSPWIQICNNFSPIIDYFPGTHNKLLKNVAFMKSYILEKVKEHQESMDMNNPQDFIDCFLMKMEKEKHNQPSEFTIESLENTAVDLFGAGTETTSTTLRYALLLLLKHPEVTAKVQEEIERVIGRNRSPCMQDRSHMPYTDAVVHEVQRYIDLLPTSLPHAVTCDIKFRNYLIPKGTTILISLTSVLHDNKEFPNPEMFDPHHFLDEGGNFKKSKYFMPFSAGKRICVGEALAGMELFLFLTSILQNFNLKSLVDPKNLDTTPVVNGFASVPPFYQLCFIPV
CYP2C19, sequence (P33261 whole entry): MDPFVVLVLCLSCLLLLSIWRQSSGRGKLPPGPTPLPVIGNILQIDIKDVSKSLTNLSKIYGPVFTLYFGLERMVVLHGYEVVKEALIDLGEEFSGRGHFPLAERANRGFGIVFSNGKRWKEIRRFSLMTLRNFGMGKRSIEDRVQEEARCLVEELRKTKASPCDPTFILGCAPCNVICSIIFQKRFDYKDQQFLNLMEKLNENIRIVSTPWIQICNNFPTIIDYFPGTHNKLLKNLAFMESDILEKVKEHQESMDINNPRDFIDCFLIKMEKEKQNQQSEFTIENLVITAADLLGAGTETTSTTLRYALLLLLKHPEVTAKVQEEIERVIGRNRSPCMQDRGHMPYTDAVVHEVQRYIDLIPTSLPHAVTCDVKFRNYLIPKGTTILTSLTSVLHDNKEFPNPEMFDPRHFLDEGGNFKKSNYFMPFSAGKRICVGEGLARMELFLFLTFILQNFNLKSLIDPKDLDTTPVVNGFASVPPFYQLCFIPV
CYP19A1, sequence (P11511 whole entry): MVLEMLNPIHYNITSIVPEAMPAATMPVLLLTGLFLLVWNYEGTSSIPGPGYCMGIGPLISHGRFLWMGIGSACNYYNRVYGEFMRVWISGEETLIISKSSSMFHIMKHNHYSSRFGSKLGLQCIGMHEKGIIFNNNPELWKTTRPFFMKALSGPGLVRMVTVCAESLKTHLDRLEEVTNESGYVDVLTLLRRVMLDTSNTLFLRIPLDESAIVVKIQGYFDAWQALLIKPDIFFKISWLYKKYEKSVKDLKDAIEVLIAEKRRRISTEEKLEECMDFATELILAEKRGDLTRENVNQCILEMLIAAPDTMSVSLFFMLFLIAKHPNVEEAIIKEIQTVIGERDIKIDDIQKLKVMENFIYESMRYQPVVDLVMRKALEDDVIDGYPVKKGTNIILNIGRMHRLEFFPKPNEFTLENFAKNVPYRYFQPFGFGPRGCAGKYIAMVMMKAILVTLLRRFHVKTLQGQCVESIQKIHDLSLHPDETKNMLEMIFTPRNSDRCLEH
CYP3A4, sequence (P08684 whole entry, canonical isoform): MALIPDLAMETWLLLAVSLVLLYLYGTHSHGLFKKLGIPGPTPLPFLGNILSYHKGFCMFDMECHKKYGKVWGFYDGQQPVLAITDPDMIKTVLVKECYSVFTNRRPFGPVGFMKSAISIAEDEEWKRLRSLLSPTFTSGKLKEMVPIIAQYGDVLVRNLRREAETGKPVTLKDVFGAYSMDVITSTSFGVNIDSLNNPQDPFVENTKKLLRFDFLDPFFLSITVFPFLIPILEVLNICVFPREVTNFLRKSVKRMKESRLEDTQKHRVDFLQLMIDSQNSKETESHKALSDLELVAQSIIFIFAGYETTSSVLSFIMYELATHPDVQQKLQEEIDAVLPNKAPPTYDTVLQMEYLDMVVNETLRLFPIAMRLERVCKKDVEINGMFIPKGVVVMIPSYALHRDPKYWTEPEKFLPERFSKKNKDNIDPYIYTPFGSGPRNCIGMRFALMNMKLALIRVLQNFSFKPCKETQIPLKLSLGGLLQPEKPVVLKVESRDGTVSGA
CYP1A2, sequence (P05177 whole entry): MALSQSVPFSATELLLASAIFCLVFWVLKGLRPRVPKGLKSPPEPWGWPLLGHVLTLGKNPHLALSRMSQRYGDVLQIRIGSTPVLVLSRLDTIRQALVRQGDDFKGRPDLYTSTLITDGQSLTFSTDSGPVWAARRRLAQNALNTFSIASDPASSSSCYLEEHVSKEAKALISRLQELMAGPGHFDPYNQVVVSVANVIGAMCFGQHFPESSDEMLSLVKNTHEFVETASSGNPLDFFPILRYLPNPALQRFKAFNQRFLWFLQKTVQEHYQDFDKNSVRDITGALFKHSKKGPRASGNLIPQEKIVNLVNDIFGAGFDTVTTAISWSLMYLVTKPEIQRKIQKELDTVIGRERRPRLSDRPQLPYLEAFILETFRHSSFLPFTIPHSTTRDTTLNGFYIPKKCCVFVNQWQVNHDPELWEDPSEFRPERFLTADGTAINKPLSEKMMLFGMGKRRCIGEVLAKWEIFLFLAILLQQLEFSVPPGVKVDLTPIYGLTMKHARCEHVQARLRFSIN

| Soluble in DMSO (Solubility in DMSO) | inhibitory potency of CYP17A1, level in words (CYP17A1; Table 2) | IC50 (CYP2D6) [µM] | inhibition of various CYP450 isoforms (drug-drug interaction) [2] | Structure (SMILES) | IC50 (CYP3A4) [µM] | safety profile [1] | IC50 (CYP2C19) [µM] | IC50 (CYP2C9) [µM] | IC50 (CYP17A1) [µM] | IC50 (CYP1A2) [µM] | IC50 (CYP19A1; 25 μM MFC, 10 min, 37° C.) [µM] | IC50 values against CYP19A1, potency level in words (CYP19A1; Table 2) | Dual Inhibitor classification (CYP17A1 and CYP19A1) |
| --- | --- | --- | --- | --- | --- | --- | --- | --- | --- | --- | --- | --- | --- |
| Yes | micromolar levels | > 50 |  | CCCC(=O)Nc1ccc(C(=O)C(C)OC(=O)c2n[nH]c3ccccc23)cc1 (racemic) [Compound 6, 1-(4-butanamidophenyl)-1-oxopropan-2-yl-1H-indazole-3-carboxylate] | > 50 | excellent safety profiles | 41.2 | 2.5 | > 50 | > 50 |  |  |  |
| Yes |  | 3.3 | inhibit various CYP450 isoforms | Cc1cccc(C(=O)OCCOc2ccc(S(N)(=O)=O)cc2)c1N [Compound 4, 2-(4-sulfamoylphenoxy) ethyl 2-amino-3-methylbenzoate] |  | reasonably good safety profiles |  |  |  |  |  |  |  |

| Structure (SMILES) | Soluble in DMSO (Solubility in DMSO) | inhibitory potency of CYP17A1, level in words (CYP17A1; Table 2) | IC50 (CYP2D6) [µM] | inhibition of various CYP450 isoforms (drug-drug interaction) [2] | IC50 (CYP3A4) [µM] | safety profile [1] | IC50 (CYP2C19) [µM] | IC50 (CYP2C9) [µM] | IC50 (CYP17A1) [µM] | IC50 (CYP1A2) [µM] | IC50 (CYP19A1; 25 μM MFC, 10 min, 37° C.) [µM] | IC50 values against CYP19A1, potency level in words (CYP19A1; Table 2) | Dual Inhibitor classification (CYP17A1 and CYP19A1) |
| --- | --- | --- | --- | --- | --- | --- | --- | --- | --- | --- | --- | --- | --- |
| O=C1COc2cc(NC(=O)c3cc(NC(=O)c4cn[nH]c4)ccc3Cl)ccc2N1 [Compound 12, N-{4-chloro-3-[(3-oxo-3,4-dihydro-2H-1,4-benzoxazin-7-yl)carbamoyl]phenyl}-1H-pyrazole-4-carboxamide] | Yes |  | > 50 |  | 18.3 | excellent safety profiles | > 50 | 22.5 | > 50 | > 50 | 0.06 | sub-micromolar inhibitory potency levels | Dual Inhibitors |
